Assays:
ABCA1 = assay: ABCA1-linked luciferase assay in HepG2 cells; type: cell-based
Method: Luciferase. HepG2 cells (RRID:CVCL 0027) purchased from ATCC and used without further validation were stably transfected with pGreenFire1-LXRE-in-ABCA1 plasmid, which contains the ABCA1 promoter sequence linked to a luciferase response element, then selected over multiple generations with puromycin and frozen in liquid N2. For assays, transfected cells were plated 24 hours in medium (Gibco) containing charcoal-stripped serum (Gemini), followed by a 24-hour treatment. Cells were lysed with passive lysis buffer (Promega), frozen at −80° C. for 15 minutes, and shaken at room temperature for 2 hours before quantification with luciferase assay system (Promega) on a Synergy Neo2 plate reader.

RXRγ = target: T1, RXRγ (Homo sapiens, UniProt P48443); assay: RXRγ NHR screen, antagonist mode; conditions: cell-based β-gal reporter assay, 10 μM
T1 sequence (P48443 1-463): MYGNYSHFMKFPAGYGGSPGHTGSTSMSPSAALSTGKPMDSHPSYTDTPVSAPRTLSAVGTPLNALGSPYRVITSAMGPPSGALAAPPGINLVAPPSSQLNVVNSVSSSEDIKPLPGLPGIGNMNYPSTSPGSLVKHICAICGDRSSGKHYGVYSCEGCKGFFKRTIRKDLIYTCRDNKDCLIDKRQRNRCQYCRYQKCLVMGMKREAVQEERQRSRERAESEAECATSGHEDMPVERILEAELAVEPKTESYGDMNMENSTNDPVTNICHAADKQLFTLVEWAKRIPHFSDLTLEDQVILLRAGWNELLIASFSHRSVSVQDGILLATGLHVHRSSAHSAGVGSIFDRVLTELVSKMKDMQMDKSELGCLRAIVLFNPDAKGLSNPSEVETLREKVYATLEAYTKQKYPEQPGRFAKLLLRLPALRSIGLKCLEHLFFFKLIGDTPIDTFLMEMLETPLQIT
Method: Receptor Binding Assays. Nuclear hormone (NHR) assays were performed by DiscoverX (Fremont, CA) on their NHR-Scan platform of cell-based protein-protein interaction assays. This platform uses a […] reporter that activates upon interaction of full-length receptor protein with steroid coactivator receptor peptides. In agonist mode, activity of CL2-57 at 10 μM was compared to maximal activity of published positive control agonists; in antagonist mode, reduction in activity with 10 μM CL2-57 from that observed at […] of published agonists was quantified.

## CCOC(=O)c1cccc(NC(=O)c2sc(Cl)cc2S(=O)(=O)N(C)c2ccc(OCC)c(OCC)c2)c1 [CL2-57, ethyl 3-(5-chloro-3-(N-(3,4-diethoxyphenyl)-N-methylsulfamoyl)thiophene-2-carboxamido) benzoate]
ABCA1; 10 μM
  ABCA1 luciferase, activity of CL2-57 (10 μM) as % of T0901317 (1 μM): 127%
ABCA1; HepG2 liver cells
  Emax, ABCA1-linked luciferase activity: 250 % of vehicle
ABCA1; Homo sapiens, HepG2 liver cells, read-out: EC50, ABCA1-linked luciferase activity
  EC50: 1.8 µM
ABCA1; in the presence of RXR agonist bexarotene, increased from 2.5-fold
  ABCA1-linked luminescence with CL2-57 titration: 4.5 fold
ABCA1; in the presence of pan-LXR agonist T0901317
  ABCA1-linked luminescence with CL2-57 titration: no increase
RXRγ
  Functional mode at RXRγ: weak antagonist
